Consider 10 compounds from US9603889B2, “IAP antagonists” (BRISTOL-MYERS SQUIBB COMPANY, priority 2012, dated 2017).

For orientation: IC50 means the point on the concentration scale where inhibition reaches its midpoint.

XIAP BIR3 (N-His-Tb-BIR3(241-356, XIAP)), sequence (P98170 241-356): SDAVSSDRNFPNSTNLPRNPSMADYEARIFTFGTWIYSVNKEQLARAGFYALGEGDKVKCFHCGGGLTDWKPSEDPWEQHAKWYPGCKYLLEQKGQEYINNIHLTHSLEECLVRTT

The assay concerns the target XIAP BIR3 (N-His-Tb-BIR3(241-356, XIAP)) (Homo sapiens (Human), UniProt P98170). The class given is binding. The settings on record: 130 nM N-His-Tb-BIR3(241-356, XIAP), 1.4 nM fluoresceinated modified SMAC peptide, 60 minutes room temperature; read-out: XIAP BIR3 FPA IC50.
On to `CN[C@@H](C)C(=O)N[C@H](C(=O)N1C[C@@H](NC(=O)c2ccc(CN(Cc3ccccc3)C(=O)[C@@H]3Cc4ccccc4CN3C(=O)[C@@H](NC(=O)[C@H](C)NC)C(C)(C)C)cc2)C[C@H]1C(=O)N[C@@H]1CCCc2ccccc21)C(C)(C)C` [Example 13, (S)-N-Benzyl-2-((S)-3,3-dimethyl-2-((S)-2-(methylamino)propanamido)butanoyl)-N-(4-(((3S,5S)-1-((S)-3,3-dimethyl-2-((S)-2-(methylamino)propanamido)butanoyl)-5-(((R)-1,2,3,4-tetrahydro-naphthalen-1-yl)carbamoyl)pyrrolidin-3-yl)carbamoyl)benzyl)-1,2,3,4-tetra-hydroisoquinoline-3-carboxamide], for which the IC50 worked out at 40 nM.

Turning to `CN[C@@H](C)C(=O)N[C@H](C(=O)N1C[C@@H](NC(=O)c2ccc(CN(Cc3ccc4ccccc4c3)C(=O)[C@@H]3Cc4ccccc4CN3C(=O)[C@@H](NC(=O)[C@H](C)NC)C(C)(C)C)cc2)C[C@H]1C(=O)N[C@@H]1CCCc2ccccc21)C(C)(C)C` [Example 14, (S)-2-((S)-3,3-Dimethyl-2-((S)-2-(methyl-amino)propanamido)butanoyl)-N-(4-(((3S,5S)-1-((S)-3,3-dimethyl-2-((S)-2-(methylamino)propanamido)butanoyl)-5-(((R)-1,2,3,4-tetra-hydronaphthalen-1-yl)carbamoyl)pyrrolidin-3-yl)carbamoyl)benzyl)-N-(naphthalen-2-ylmethyl)-1,2,3,4-tetrahydro-isoquinoline-3-carboxamide], the IC50 stood at 40 nM.

In the case of `CN[C@@H](C)C(=O)N[C@H](C(=O)N1C[C@@H](NC(=O)c2ccc(CN(C(=O)[C@@H]3Cc4ccccc4CN3C(=O)[C@@H](NC(=O)[C@H](C)NC)C(C)(C)C)[C@H](C)c3ccc4ccccc4c3)cc2)C[C@H]1C(=O)N[C@@H]1CCCc2ccccc21)C(C)(C)C` [Example 15, (S)-2-((S)-3,3-Dimethyl-2-((S)-2-(methylamino)propanamido)butanoyl)-N-(4-(((3S,5S)-1-((S)-3,3-dimethyl-2-((S)-2-(methylamino)propanamido)butanoyl)-5-(((R)-1,2,3,4-tetra-hydronaphthalen-1-yl)carbamoyl)pyrrolidin-3-yl)carbamoyl)benzyl)-N-((R)-1-(naphthalen-2-yl)ethyl)-1,2,3,4-tetrahydro-isoquinoline-3-carboxamide], the half-inhibitory concentration (IC50) came to 90 nM.

Regarding `CN[C@@H](C)C(=O)N[C@H](C(=O)N1CCc2ccccc2[C@H]1C(=O)N(CCc1ccccc1)Cc1ccc(C(=O)NC2C[C@@H](C(=O)NC3CCCc4ccccc43)N(C(=O)[C@@H](NC(=O)[C@H](C)NC)C(C)(C)C)C2)cc1)C(C)(C)C` (stereo partly shown) [Example 16], the IC50 was found to be 70 nM.

As to `CN[C@@H](C)C(=O)N[C@H](C(=O)N1C[C@@H](NC(=O)c2ccc(CN(C(=O)[C@@H]3Cc4ccccc4CN3C(=O)[C@@H](NC(=O)[C@H](C)NC)C(C)(C)C)[C@@H](C)c3cccc(Cl)c3)cc2)C[C@H]1C(=O)N[C@@H]1CCCc2ccccc21)C(C)(C)C` [Example 18, (S)-N-((S)-1-(3-Chlorophenyl)ethyl)-2-((S)-3,3-dimethyl-2-((S)-2-(methylamino)propanamido)butanoyl)-N-(4-(((3S,5S)-1-((S)-3,3-dimethyl-2-((S)-2-(methylamino)propanamido)butanoyl)-5-(((R)-1,2,3,4-tetrahydro-naphthalen-1-yl)carbamoyl)pyrrolidin-3-yl)carbamoyl)benzyl)-1,2,3,4-tetrahydro-isoquinoline-3-carboxamide], the IC50 came out at 120 nM.

For `CN[C@@H](C)C(=O)N[C@H](C(=O)N1CCc2ccccc2[C@H]1C(=O)N(Cc1ccc(C(=O)N[C@H]2C[C@@H](C(=O)N[C@@H]3CCCc4ccccc43)N(C(=O)[C@@H](NC(=O)[C@H](C)NC)C(C)(C)C)C2)cc1)[C@H](C)c1ccccc1F)C(C)(C)C` [Example 19, (S)-2-((S)-3,3-Dimethyl-2-((S)-2-(methylamino)propanamido)butanoyl)-N-(4-(((3S,5S)-1-((S)-3,3-dimethyl-2-((S)-2-(methylamino)propanamido)butanoyl)-5-(((R)-1,2,3,4-tetra-hydronaphthalen-1-yl)carbamoyl)pyrrolidin-3-yl)carbamoyl)benzyl)-N-((R)-1-(2-fluorophenyl)ethyl)-1,2,3,4-tetrahydro-isoquinoline-1-carboxamide], the IC50 worked out at 290 nM.

On to `CC[C@H](c1ccccc1)N(Cc1ccc(C(=O)N[C@H]2C[C@@H](C(=O)N[C@@H]3CCCc4ccccc43)N(C(=O)[C@@H](NC(=O)[C@H](C)NC)C(C)(C)C)C2)cc1)C(=O)[C@@H]1Cc2ccccc2CN1C(=O)[C@@H](NC(=O)[C@H](C)NC)C(C)(C)C` [Example 20, (S)-2-((S)-3,3-Dimethyl-2-((S)-2-(methylamino)propanamido)butanoyl)-N-(4-(((3S,5S)-1-((S)-3,3-dimethyl-2-((S)-2-(methylamino)propanamido)butanoyl)-5-(((R)-1,2,3,4-tetrahydro-naphthalen-1-yl)carbamoyl)pyrrolidin-3-yl)carbamoyl)benzyl)-N-((R)-1-phenylpropyl)-1,2,3,4-tetra-hydroisoquinoline-3-carboxamide], for which the 50% inhibitory concentration (IC50) was 110 nM.

As to `CN[C@@H](C)C(=O)N[C@H](C(=O)N1C[C@@H](NC(=O)c2ccc(CN(C(=O)[C@@H]3Cc4ccccc4CN3C(=O)[C@@H](NC(=O)[C@H](C)NC)C(C)(C)C)[C@H](C)C(c3ccccc3)c3ccccc3)cc2)C[C@H]1C(=O)N[C@@H]1CCCc2ccccc21)C(C)(C)C` [Example 21, (S)-2-((S)-3,3-Dimethyl-2-((S)-2-(methylamino)propanamido)butanoyl)-N-(4-(((3S,5S)-1-((S)-3,3-dimethyl-2-((S)-2-(methylamino)propanamido)butanoyl)-5-(((R)-1,2,3,4-tetra-hydronaphthalen-1-yl)carbamoyl)pyrrolidin-3-yl)carbamoyl)benzyl)-N-((R)-1,1-diphenylpropan-2-yl)-1,2,3,4-tetrahydro-isoquinoline-3-carboxamide], the IC50 is 290 nM.

As to `CN[C@@H](C)C(=O)N[C@H](C(=O)N1C[C@@H](NC(=O)c2ccc(CN(C(=O)[C@@H]3Cc4ccccc4CN3C(=O)[C@@H](NC(=O)[C@H](C)NC)C(C)(C)C)[C@H](C)c3ccccc3)cc2)C[C@H]1C(=O)N[C@@H]1CCCc2ccccc21)C(C)(C)C` [Example 23, (S)-2-((S)-3,3-Dimethyl-2-((S)-2-(methylamino)propanamido)butanoyl)-N-(4-(((3S,5S)-1-((S)-3,3-dimethyl-2-((S)-2-(methylamino)propanamido)butanoyl)-5-(((R)-1,2,3,4-tetra-hydronaphthalen-1-yl)carbamoyl)pyrrolidin-3-yl)carbamoyl)benzyl)-N-((R)-1-phenylethyl)-1,2,3,4-tetra-hydroisoquinoline-3-carboxamide], the IC50 was found to be 120 nM.

Take `CN[C@@H](C)C(=O)N[C@H](C(=O)N1C[C@@H](NC(=O)c2ccc(CN(C(=O)[C@@H]3Cc4ccccc4CN3C(=O)[C@@H](NC(=O)[C@H](C)NC)C(C)(C)C)[C@H](C)c3ccccc3OC)cc2)C[C@H]1C(=O)N[C@@H]1CCCc2ccccc21)C(C)(C)C` [Example 24, (S)-2-((S)-3,3-Dimethyl-2-((S)-2-(methylamino)propanamido)butanoyl)-N-(4-(((3S,5S)-1-((S)-3,3-dimethyl-2-((S)-2-(methylamino)propanamido)butanoyl)-5-(((R)-1,2,3,4-tetrahydro-naphthalen-1-yl)carbamoyl)pyrrolidin-3-yl)carbamoyl)benzyl)-N-((R)-1-(2-methoxyphenyl)ethyl)-1,2,3,4-tetrahydro-isoquinoline-3-carboxamide]: the IC50 came out at 130 nM.
